Literature values, collected in patent publication US9185913B2, “10H-benzo[g]pteridine-2,4-dione derivatives, method for the production thereof, and use thereof” (TRIOPTOTEC GMBH, priority 2011, dated 2015).

What was measured:
[1] = system: microorganisms
[2] = system: microorganisms; remark: listed apart in the source

Row | Structure (SMILES) | Affinity for microorganisms [1] | Inactivation of microorganisms [2]
1 | Cc1cc2nc3c(=O)[nH]c(=O)nc-3n(C[C@H](O)[C@H](O)[C@H](O)CO)c2cc1C [riboflavin] | low | inadequate
2 | CC(=O)OC[C@@H](OC(C)=O)[C@@H](OC(C)=O)[C@H](Cn1c2nc(=O)[nH]c(=O)c-2nc2cc(C)c(C)cc21)OC(C)=O [tetraacetylriboflavin] | low | inadequate
